Biological target: T1, Luc2-CaM fusion (UniProt P08659+P0DP23, D3I/E2D/N119G/N50D)
T1 construct: made in house; host or cells: cell-free: TnT Coupled Reticulocyte Lysate System
Experiment: C-terminal modulated luciferase fusion system (calmodulin)
Assay type: biochemical, human

O=C(O)CN(CCOCCOCCN(CC(=O)O)CC(=O)O)CC(=O)O [EGTA]
increase of luminescence (EGTA final concentration 3 mM, Luc2-CaM TnT lysate in LAR): about 9 fold

[Ca+2].[Cl-].[Cl-] [Ca^+2, CaCl2]
effect on EGTA-induced increase in luminescence (1 μl 100 mM CaCl2 added after EGTA): can be reversed
